Source: article PMC4515243, “Phase 1 pharmacokinetic study of the oral pan-AKT inhibitor MK-2206 in Japanese patients with advanced solid tumors” (Cancer Chemotherapy and Pharmacology, 2015)
Several values for one entry are separate records, joined by “and”; a condition that tells them apart may be missing. Identical values can stand only once.

Tested on: Japanese patients with advanced solid tumors
Assay: phase 1 safety and tolerability (DLT, adverse events) in Japanese patients;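 also: toxicities graded by NCI CTCAE version 3.0, treatment given until disease progression or unacceptable toxicity, three to nine patients enrolled per dose level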
[1] = all cohorts (n = 24), all treatment cycles

From the text: Treatment was continued until disease progression or the occurrence of an unacceptable toxicity.
A minimum of three and up to nine patients were enrolled at each dose level based on the toxicity probability intervals [9].
Adverse events were graded using the National Cancer Institute Common Terminology Criteria for Adverse Events, version 3.0.

With `NC1(c2ccc(-c3nc4ccn5c(=O)[nH]nc5c4cc3-c3ccccc3)cc2)CCC1` [MK-2206] the “Eosinophilia, drug-related adverse event, patients” value (135 mg QW (n = 3), Grades 3–5) was 0, the “Erythema multiforme, drug-related adverse event, patients” value (from here on “Erythema multiforme”) (135 mg QW (n = 3), Grades 3–5) was 0 and the “Fatigue, drug-related adverse event, patients” value (from here on “Fatigue … patients”) (135 mg QW (n = 3), Grades 3–5) was 0. The “HbA1C increased, drug-related adverse event, patients” value (“HbA1C increased” for short) (135 mg QW (n = 3), Grades 3–5) was 0, the “Hyperglycemia, drug-related adverse event, patients” value (135 mg QW (n = 3), Grades 3–5) was 0 and the “Hypernatremia, drug-related adverse event, patients” value (from here on “Hypernatremia … patients”) (135 mg QW (n = 3), Grades 3–5) was 0. For the same compound, the “Hypoalbuminemia, drug-related adverse event, patients” value (shortened to “Hypoalbuminemia … patients”) (135 mg QW (n = 3), Grades 3–5) was 0, the “Hypokalemia, drug-related adverse event, patients” value (from here on “Hypokalemia … patients”) (135 mg QW (n = 3), Grades 3–5) was 0 and the “Insulin c-peptide increased, drug-related adverse event, patients” value (“Insulin c-peptide increased” for short) (135 mg QW (n = 3), Grades 3–5) was 0. For the same compound, the “Leukopenia, drug-related adverse event, patients” value (135 mg QW (n = 3), Grades 3–5) was 0, the “Localized edema, drug-related adverse event, patients” value (from here on “Localized edema”) (135 mg QW (n = 3), Grades 3–5) was 0 and the “Lymphopenia, drug-related adverse event, patients” value (135 mg QW (n = 3), Grades 3–5) was 0. For the same compound, the “Nausea, drug-related adverse event, patients” value (from here on “Nausea … patients”) (135 mg QW (n = 3), Grades 3–5) was 0, the “Neutropenia, drug-related adverse event, patients” value (135 mg QW (n = 3), Grades 3–5) was 0 and the “Palmar-plantar erythrodysaesthesia syndrome, drug-related adverse event, patients” value (135 mg QW (n = 3), Grades 3–5) was 0. For the same compound, the “Pruritus, drug-related adverse event, patients” value (“Pruritus … patients” below) (135 mg QW (n = 3), Grades 3–5) was 0, the “Pyrexia, drug-related adverse event, patients” value (135 mg QW (n = 3), Grades 3–5) was 0 and the “Rash, drug-related adverse event, patients” value (135 mg QW (n = 3), Grades 3–5) was 0. The “Stomatitis, drug-related adverse event, patients” value (135 mg QW (n = 3), Grades 3–5) was 0, the “Vomiting, drug-related adverse event, patients” value (“Vomiting … patients” for short) (135 mg QW (n = 3), Grades 3–5) was 0 and the “patients who discontinued treatment because of grade 2 rash” value (200 mg QW) was “One patient”. The “patients with DLTs during Cycle 1” value (200 mg QW) was “Three of the nine”, the “ALT increased, drug-related adverse event, patients” value (from here on “ALT increased”) (200 mg QW (n = 9), All grades) was 3 and the “Blood creatinine increased, drug-related adverse event, patients” value (shortened to “Blood creatinine increased”) (200 mg QW (n = 9), All grades) was 6. For the same compound, the “Decreased appetite, drug-related adverse event, patients” value (“Decreased appetite” for short) (200 mg QW (n = 9), All grades) was 4, the “Diarrhea, drug-related adverse event, patients” value (200 mg QW (n = 9), All grades) was 3 and the “Dry skin, drug-related adverse event, patients” value (“Dry skin” below) (200 mg QW (n = 9), All grades) was 2. For the same compound, the “Eosinophil count increased, drug-related adverse event, patients” value (“Eosinophil count increased” for short) (200 mg QW (n = 9), All grades) was 5, the “Eosinophilia, drug-related adverse event, patients” value (200 mg QW (n = 9), All grades) was 4 and the “Erythema multiforme” value (200 mg QW (n = 9), All grades) was 4. For the same compound, the “Fatigue … patients” value (200 mg QW (n = 9), All grades) was 4, the “HbA1C increased” value (200 mg QW (n = 9), All grades) was 4 and the “Hyperglycemia, drug-related adverse event, patients” value (200 mg QW (n = 9), All grades) was 6. The “Hypernatremia … patients” value (200 mg QW (n = 9), All grades) was 4, the “Hypoalbuminemia … patients” value (200 mg QW (n = 9), All grades) was 2 and the “Hypokalemia … patients” value (200 mg QW (n = 9), All grades) was 2. For the same compound, the “Insulin c-peptide increased” value (200 mg QW (n = 9), All grades) was 5, the “Leukopenia, drug-related adverse event, patients” value (200 mg QW (n = 9), All grades) was 8 and the “Localized edema” value (200 mg QW (n = 9), All grades) was 4. For the same compound, the “Lymphopenia, drug-related adverse event, patients” value (200 mg QW (n = 9), All grades) was 2, the “Nausea … patients” value (200 mg QW (n = 9), All grades) was 3 and the “Neutropenia, drug-related adverse event, patients” value (200 mg QW (n = 9), All grades) was 4. For the same compound, the “Palmar-plantar erythrodysaesthesia syndrome, drug-related adverse event, patients” value (200 mg QW (n = 9), All grades) was 2, the “Pruritus … patients” value (200 mg QW (n = 9), All grades) was 5 and the “Pyrexia, drug-related adverse event, patients” value (200 mg QW (n = 9), All grades) was 5. For the same compound, the “Rash, drug-related adverse event, patients” value (200 mg QW (n = 9), All grades) was 6, the “Stomatitis, drug-related adverse event, patients” value (200 mg QW (n = 9), All grades) was 6 and the “Vomiting … patients” value (200 mg QW (n = 9), All grades) was 3. The “ALT increased” value (200 mg QW (n = 9), Grades 3–5) was 1, the “Blood creatinine increased” value (200 mg QW (n = 9), Grades 3–5) was 0 and the “Decreased appetite” value (200 mg QW (n = 9), Grades 3–5) was 1. For the same compound, the “Diarrhea, drug-related adverse event, patients” value (200 mg QW (n = 9), Grades 3–5) was 0, the “Dry skin” value (200 mg QW (n = 9), Grades 3–5) was 0 and the “Eosinophil count increased” value (200 mg QW (n = 9), Grades 3–5) was 0. For the same compound, the “Eosinophilia, drug-related adverse event, patients” value (200 mg QW (n = 9), Grades 3–5) was 0, the “Erythema multiforme” value (200 mg QW (n = 9), Grades 3–5) was 2 and the “Fatigue … patients” value (200 mg QW (n = 9), Grades 3–5) was 0. The “HbA1C increased” value (200 mg QW (n = 9), Grades 3–5) was 0, the “Hyperglycemia, drug-related adverse event, patients” value (200 mg QW (n = 9), Grades 3–5) was 2 and the “Hypernatremia … patients” value (200 mg QW (n = 9), Grades 3–5) was 1. For the same compound, the “Hypoalbuminemia … patients” value (200 mg QW (n = 9), Grades 3–5) was 0, the “Hypokalemia … patients” value (200 mg QW (n = 9), Grades 3–5) was 0 and the “Insulin c-peptide increased” value (200 mg QW (n = 9), Grades 3–5) was 0. The “Leukopenia, drug-related adverse event, patients” value (200 mg QW (n = 9), Grades 3–5) was 1, the “Localized edema” value (200 mg QW (n = 9), Grades 3–5) was 0 and the “Lymphopenia, drug-related adverse event, patients” value (200 mg QW (n = 9), Grades 3–5) was 2. The “Nausea … patients” value (200 mg QW (n = 9), Grades 3–5) was 1, the “Neutropenia, drug-related adverse event, patients” value (200 mg QW (n = 9), Grades 3–5) was 0 and the “Palmar-plantar erythrodysaesthesia syndrome, drug-related adverse event, patients” value (200 mg QW (n = 9), Grades 3–5) was 0. For the same compound, the “Pruritus … patients” value (200 mg QW (n = 9), Grades 3–5) was 0, the “Pyrexia, drug-related adverse event, patients” value (200 mg QW (n = 9), Grades 3–5) was 0 and the “Rash, drug-related adverse event, patients” value (200 mg QW (n = 9), Grades 3–5) was 0. For the same compound, the “Stomatitis, drug-related adverse event, patients” value (200 mg QW (n = 9), Grades 3–5) was 0, the “Vomiting … patients” value (200 mg QW (n = 9), Grades 3–5) was 0 and the “time until onset of DLTs” value (200 mg QW, grade 3 facial edema and grade 3 erythema multiforme) was 10 days. The “time until onset of DLTs” value (200 mg QW, grade 3 hyperglycemia and grade 3 erythema multiforme) was 11 days, the “time until onset of DLT” value (200 mg QW, grade 4 hyponatremia) was 10 days and the “ALT increased” value (Total (n = 24), All grades) was 4. The “Blood creatinine increased” value (Total (n = 24), All grades) was 8/24 and 8, the “Decreased appetite” value (Total (n = 24), All grades) was 7 and the “Diarrhea, drug-related adverse event, patients” value (Total (n = 24), All grades) was 10/24 and 10. The “Dry skin” value (Total (n = 24), All grades) was 5, the “Eosinophil count increased” value (Total (n = 24), All grades) was 7 and the “Eosinophilia, drug-related adverse event, patients” value (Total (n = 24), All grades) was 13/24 and 13. For the same compound, the “Erythema multiforme” value (Total (n = 24), All grades) was 4, the “Fatigue … patients” value (Total (n = 24), All grades) was 10 and the “HbA1C increased” value (Total (n = 24), All grades) was 7. The “Hyperglycemia, drug-related adverse event, patients” value (Total (n = 24), All grades) was 12/24 and 12, the “Hypernatremia … patients” value (Total (n = 24), All grades) was 5 and the “Hypoalbuminemia … patients” value (Total (n = 24), All grades) was 4. The “Hypokalemia … patients” value (Total (n = 24), All grades) was 4, the “Insulin c-peptide increased” value (Total (n = 24), All grades) was 16/24 and 16 and the “Leukopenia, drug-related adverse event, patients” value (Total (n = 24), All grades) was 12/24 and 12. The “Localized edema” value (Total (n = 24), All grades) was 4, the “Lymphopenia, drug-related adverse event, patients” value (Total (n = 24), All grades) was 9/24 and 9 and the “Nausea … patients” value (Total (n = 24), All grades) was 5. The “Neutropenia, drug-related adverse event, patients” value (Total (n = 24), All grades) was 9/24 and 9, the “Palmar-plantar erythrodysaesthesia syndrome, drug-related adverse event, patients” value (Total (n = 24), All grades) was 4 and the “Pruritus … patients” value (Total (n = 24), All grades) was 10. The “Pyrexia, drug-related adverse event, patients” value (Total (n = 24), All grades) was 13/24 and 13, the “Rash, drug-related adverse event, patients” value (Total (n = 24), All grades) was 20/24 and 20 and the “Stomatitis, drug-related adverse event, patients” value (Total (n = 24), All grades) was 14/24 and 14. The “Vomiting … patients” value (Total (n = 24), All grades) was 4, the “ALT increased” value (Total (n = 24), Grades 3–5) was 1 and the “Blood creatinine increased” value (Total (n = 24), Grades 3–5) was 0. The “Decreased appetite” value (Total (n = 24), Grades 3–5) was 1, the “Diarrhea, drug-related adverse event, patients” value (Total (n = 24), Grades 3–5) was 1 and the “Dry skin” value (Total (n = 24), Grades 3–5) was 0. The “Eosinophil count increased” value (Total (n = 24), Grades 3–5) was 0, the “Eosinophilia, drug-related adverse event, patients” value (Total (n = 24), Grades 3–5) was 0 and the “Erythema multiforme” value (Total (n = 24), Grades 3–5) was 2. The “Fatigue … patients” value (Total (n = 24), Grades 3–5) was 0, the “HbA1C increased” value (Total (n = 24), Grades 3–5) was 0 and the “Hyperglycemia, drug-related adverse event, patients” value (Total (n = 24), Grades 3–5) was 2. For the same compound, the “Hypernatremia … patients” value (Total (n = 24), Grades 3–5) was 1, the “Hypoalbuminemia … patients” value (Total (n = 24), Grades 3–5) was 0 and the “Hypokalemia … patients” value (Total (n = 24), Grades 3–5) was 0. The “Insulin c-peptide increased” value (Total (n = 24), Grades 3–5) was 0, the “Leukopenia, drug-related adverse event, patients” value (Total (n = 24), Grades 3–5) was 1 and the “Localized edema” value (Total (n = 24), Grades 3–5) was 0. The “Lymphopenia, drug-related adverse event, patients” value (Total (n = 24), Grades 3–5) was 6, the “Nausea … patients” value (Total (n = 24), Grades 3–5) was 1 and the “Neutropenia, drug-related adverse event, patients” value (Total (n = 24), Grades 3–5) was 1. For the same compound, the “Palmar-plantar erythrodysaesthesia syndrome, drug-related adverse event, patients” value (Total (n = 24), Grades 3–5) was 0, the “Pruritus … patients” value (Total (n = 24), Grades 3–5) was 0 and the “Pyrexia, drug-related adverse event, patients” value (Total (n = 24), Grades 3–5) was 0. The “Rash, drug-related adverse event, patients” value (Total (n = 24), Grades 3–5) was 1, the “Stomatitis, drug-related adverse event, patients” value (Total (n = 24), Grades 3–5) was 0 and the “Vomiting … patients” value (Total (n = 24), Grades 3–5) was 0. For the same compound, the treatment-related deaths (all cohorts) was “No treatment-related deaths”, the “diarrhea related to MK-2206, percent of patients” value [1] was 41.7% and the “elevated blood creatinine level related to MK-2206, percent of patients” value [1] was 33.3%. The “elevated insulin c-peptide level related to MK-2206, percent of patients” value [1] was 66.7%, the “eosinophilia related to MK-2206, percent of patients” value [1] was 54.2% and the “hyperglycemia related to MK-2206, percent of patients” value [1] was 50.0%. For the same compound, the “leukopenia related to MK-2206, percent of patients” value [1] was 50.0%, the “lymphopenia related to MK-2206, percent of patients” value [1] was 37.5% and the “neutropenia related to MK-2206, percent of patients” value [1] was 37.5%. The “pyrexia related to MK-2206, percent of patients” value [1] was 54.2%, the “rash related to MK-2206, percent of patients” value [1] was 83.3% and the “stomatitis related to MK-2206, percent of patients” value [1] was 58.3%.
